According to patent publication US20240077481A1, “IMPROVED TREATMENT METHODS USING DMDS FOR THE TREATMENT OF AUTOIMMUNE DISEASES, AND BIOMARKER FOR PREDICTING AND/OR OPTIMISING SAID TREATMENT METHODS” (ARES TRADING S.A., priority 2021, published 2024):

Tests used:
[1] = test system: CD24hiCD38hi TrB cells; settings: those with NMOSDs; cited from earlier work
[2] = test system: CD27+ memory B cells; settings: those with NMOSDs; cited from earlier work
[3] = test system: plasma cells signatures; test: Immune deconvolution signatures, CLARITY phase 3, 96 weeks; format: in vivo, human; settings: 96 weeks after first cladribine treatment
Text: Plasma cell signatures have weak positive, but significant, correlation with: MACT2 (Mean Active T2 Lesions), CACT2 (Cumulative Active T2 lesions), MRCULES (Mean CU Lesions), MNT1GEL (Mean New T1 Gd+ Lesions). The results are illustrated in FIG. 9.

[4] = test system: plasmablast/cells; test: Sustained decrease of plasmablast/cells under Cladribine treatment; format: in vivo, human; settings: month 3-12
Text: According to the instant invention, it is preferably shown that treatment of said autoimmune diseases with DMDs, preferably the treatment of MS with said DMDs and especially treatment of MS with Cladribine, in an individual induces a sustained decrease of pathological memory B cells and plasmablast/cells (>−70% and >−50% from baseline respectively) from month 1-12 and month 3-12 respectively. Repopulation of these cells resulting in a increase of numbers of memory B cells and Plasma cells to <−40% and −20% respectively will illustrate a loss of efficacy serving as a retreatment marker.

[5] = CLARITY extension, five patient groups, 3.5 mg/kg or placebo after CLARITY; cited from earlier work
[6] = test system: plasma cell numbers in the blood; test: Plasma cell response in MS patients vaccinated with Shingrix before cladribine treatment; format: in vivo, human; settings: MS patients vaccinated twice with Shingrix, second dose 1 week before start of cladribine
Text: According to the instant invention, it is preferably shown that treatment of treatment of MS with Cladribine, in an individual, reduces short lived plasmablasts and CD38^+ plasma cells and the direct effect on these plasma cell subpopulations is further supported by blood data from MS patients vaccinated twice with the Shingrix vaccine before the start of treatment with the DMD Cladribine. After the second Shingrix dose given 1 week before said start of cladribine treatment, the patient raised an acute plasma cell response, and increased plasma cell numbers in the blood to the MS patient were reduced by cladribine treatment (cite vaccination patent). These findings indicate that Cladribine is able to directly affect and reduce plasmablasts and CD38+ plasma cells which are associated with disease pathology by means of autoantibody production and direct cellular toxicity, especially when occurring within the cerebrospinal fluid. What we found in MS is also important for other diseases. There are a variety of AI & Neuroinflammatory diseases where potentially plasma cells/plasmablasts are involved in the disease activity and disease course which we deem to benefit from a treatment directly acting on plasma cells, preferably cladribine treatment. […]

[7] = test system: Memory B cells; test: MAGNIFY-MS peripheral blood immunophenotyping (flow cytometry); format: in vivo, human; settings: month 1-12
[8] = test system: CD19^+ cell; settings: Montalban et al., 2016; cited from earlier work
[9] = test system: B cell; settings: followed by a period of repopulation (Wiendl et al., 2020); cited from earlier work
[10] = test system: CD4^+ T cell; settings: followed by a period of repopulation (Wiendl et al., 2020); cited from earlier work
[11] = test system: CD8^+ T cell; settings: followed by a period of repopulation (Wiendl et al., 2020); cited from earlier work

## Rituximab: anti-CD20 therapy targeting B cells
[1]
  number of CD24hiCD38hi TrB cells: increased
[2]
  number of CD27+ memory B cells: lowered

## Nc1nc(Cl)nc2c1ncn2[C@H]1C[C@H](O)[C@@H](CO)O1 [Cladribine]
[3]
  Ratio in plasma cells signatures vs untreated control: decreased ratio
[4]
  Sustained decrease of plasmablast/cells from baseline: > −50%
[5]
  Relapse rates and disability between all groups: not significantly different
[6]
  Increased plasma cell numbers in the blood after second Shingrix dose: reduced
[7]
  Sustained decrease of pathological memory B cells from baseline: > −70%

## ocrelizumab: anti-CD20 therapy targeting B cells
[8]
  Time of reductions in CD19^+ cell counts after treatment (as early as): 2 weeks

## Alemtuzumab: other disease-modifying therapy compared in the discussion
[9]
  B cell counts: decrease
[10]
  CD4^+ T cell counts: decrease
[11]
  CD8^+ T cell counts: decrease
